In brackets after ≈: the same amount, converted by molar mass.
Tests used:
[1] = test system: Enterococcus faecalis ATCC 29212; experiment: Minimum Inhibitory Concentration (MIC) in LB media; format: cell-based; conditions: for MIC: Enterococcus faecalis, ATCC29212, read-out: Minimum Inhibitory Concentration E. faecalis ATCC 29212
Description: (§1) The compounds of Formula (I) are of interest due to their potent antibacterial effects. The ability of the invention compounds disclosed herein to achieve an antibacterial effect may be evaluated with regard to their ability to inhibit the growth of bacterial species like Escherichia coli ATCC 25922, Staphylococcus aureus ATCC 29213, Klebsiella pneumoniae ATCC 13883, Acinetobacter baumannii ATCC 19606, Pseudomonas aeruginosa ATCC 27853, Enterococcus faecalis ATCC 29212 and Enterococcus faecalis ATCC 29212 using an assay based on the following Minimum Inhibitory Concentration (MIC) protocol:
(§2) The medium sterility is checked by incubating at 37° C. for a period of 48 h.
(§3) Bacterial cultures that are stored as glycerol stocks at −80° C. are sub cultured on LB agar plates to obtain isolated colonies. A single colony of each strain is cultured in LB broth. The cultures are incubated at 37 C, 200 rpm till they reach an optical density (OD at 600 nm) of 0.8 to 1. […] Test compounds are dissolved in dimethyl sulfoxide (DMSO) to a stock concentration of 4 mg/ml. A twofold dilution series of this DMSO stock is prepared in a 96 well V bottom microtitre plate from rows A to H. A 3 μL volume of these dilutions are transferred to a 96-well flat bottom microtitre assay plate. Controls to monitor the effects of DMSO and media sterility are included. Each well is inoculated with 150 μL of the above diluted culture. The plates are incubated at 37° C. overnight in a humidified incubator. The following morning, the plates are read using a Spectrophotometer at 600 nm wavelength. […] The antibacterial activity (MIC) determined against representative Gram positive (S. aureus, E. faecalis) and Gram negative (E.coli, -P. aeruginosa and A. baumannii) pathogen were reported Table 1.

[2] = test system: Escherichia coli ATCC 25922; experiment: Minimum Inhibitory Concentration (MIC) in LB media; format: cell-based; conditions: for MIC: Escherichia coli, ATCC25922, read-out: Minimum Inhibitory Concentration E. coli ATCC 25922
Description: as §1, §2, §3

[3] = test system: Klebsiella pneumoniae ATCC 13883; experiment: Minimum Inhibitory Concentration (MIC) in LB media; format: cell-based; conditions: for MIC: Klebsiella pneumoniae, ATCC13883, read-out: Minimum Inhibitory Concentration K. pneumoniae ATCC 13883
Description: as §1, §2, §3

[4] = test system: Pseudomonas aeruginosa ATCC 27853; experiment: Minimum Inhibitory Concentration (MIC) in LB media; format: cell-based; conditions: for MIC: Pseudomonas aeruginosa, ATCC27853, read-out: Minimum Inhibitory Concentration P. aeruginosa ATCC 27853
Description: as §1, §2, §3

[5] = test system: Staphylococcus aureus ATCC 29213; experiment: Minimum Inhibitory Concentration (MIC) in LB media; format: cell-based; conditions: for MIC: Staphylococcus aureus, ATCC29213, read-out: Minimum Inhibitory Concentration S. aureus ATCC 29213
Description: as §1, §2, §3

[6] = test system: Acinetobacter baumannii ATCC 19606; experiment: Minimum Inhibitory Concentration (MIC) in LB media; format: cell-based; conditions: for MIC: Acinetobacter baumannii, ATCC19606;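 for all read-outs here: twofold compound dilutions from DMSO stocks in LB broth microplates, overnight incubation at 37 °C, growth read by absorbance at 600 nm, with DMSO and sterility controls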
E. coli DNA gyrase = E. coli DNA gyrase (Escherichia coli, UniProt P0AES4+P0AES6); experiment: biochemical; conditions: supercoiling assay
E. coli topoisomerase IV = E. coli topoisomerase IV (Escherichia coli, UniProt P0AFI2+P20083); experiment: biochemical; conditions: decatenation assay; read-out: E. coli Topo IV IC50
Chain of E. coli topoisomerase IV (P20083 whole entry): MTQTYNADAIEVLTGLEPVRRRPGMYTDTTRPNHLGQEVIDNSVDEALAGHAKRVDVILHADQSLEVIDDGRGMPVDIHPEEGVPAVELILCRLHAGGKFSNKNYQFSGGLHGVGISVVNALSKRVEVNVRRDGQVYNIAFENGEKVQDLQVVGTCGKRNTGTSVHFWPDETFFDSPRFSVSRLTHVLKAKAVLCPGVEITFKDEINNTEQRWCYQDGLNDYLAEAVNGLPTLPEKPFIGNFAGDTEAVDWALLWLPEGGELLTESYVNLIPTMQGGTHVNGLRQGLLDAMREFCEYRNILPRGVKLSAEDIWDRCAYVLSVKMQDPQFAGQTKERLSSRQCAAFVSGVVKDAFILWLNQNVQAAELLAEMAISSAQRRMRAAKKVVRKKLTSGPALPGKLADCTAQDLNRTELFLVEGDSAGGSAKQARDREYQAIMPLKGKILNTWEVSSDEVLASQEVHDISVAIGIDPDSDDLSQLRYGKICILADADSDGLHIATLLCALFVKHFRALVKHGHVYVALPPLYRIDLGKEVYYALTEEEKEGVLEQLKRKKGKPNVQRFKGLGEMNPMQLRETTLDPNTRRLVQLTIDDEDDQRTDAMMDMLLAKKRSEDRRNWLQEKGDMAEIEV
Chain of E. coli topoisomerase IV (P0AFI2 whole entry): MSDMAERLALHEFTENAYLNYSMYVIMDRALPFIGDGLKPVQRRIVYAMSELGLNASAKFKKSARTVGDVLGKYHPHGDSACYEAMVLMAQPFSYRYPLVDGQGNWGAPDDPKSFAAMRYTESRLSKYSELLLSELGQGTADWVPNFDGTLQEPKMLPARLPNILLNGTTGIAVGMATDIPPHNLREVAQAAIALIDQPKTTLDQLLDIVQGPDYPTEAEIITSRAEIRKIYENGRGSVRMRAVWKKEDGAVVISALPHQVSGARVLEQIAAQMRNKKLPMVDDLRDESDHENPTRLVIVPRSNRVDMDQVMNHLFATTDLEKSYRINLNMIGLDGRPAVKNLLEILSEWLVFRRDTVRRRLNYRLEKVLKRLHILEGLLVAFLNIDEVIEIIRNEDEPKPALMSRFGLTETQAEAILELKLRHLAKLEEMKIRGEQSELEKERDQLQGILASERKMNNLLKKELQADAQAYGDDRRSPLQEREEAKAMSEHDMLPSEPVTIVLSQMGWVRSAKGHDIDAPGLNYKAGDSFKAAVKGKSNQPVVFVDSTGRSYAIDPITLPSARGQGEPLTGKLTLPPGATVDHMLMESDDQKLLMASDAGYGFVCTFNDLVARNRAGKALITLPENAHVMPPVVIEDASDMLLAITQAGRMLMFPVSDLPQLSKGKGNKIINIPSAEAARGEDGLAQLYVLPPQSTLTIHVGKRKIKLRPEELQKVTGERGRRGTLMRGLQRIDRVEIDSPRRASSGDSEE

MIC [1] [µg/mL] | MIC [2] [µg/mL] | MIC [3] [µg/mL] | MIC [4] [µg/mL] | MIC [5] [µg/mL] | MIC [6] [µg/mL] | Compound | Minimum Inhibitory Concentration E. faecalis ATCC 29212 [1] [µg/mL] | Minimum Inhibitory Concentration E. coli ATCC 25922 [2] [µg/mL] | Minimum Inhibitory Concentration K. pneumoniae ATCC 13883 [3] [µg/mL] | Minimum Inhibitory Concentration P. aeruginosa ATCC 27853 [4] [µg/mL] | Minimum Inhibitory Concentration S. aureus ATCC 29213 [5] [µg/mL] | Minimum Inhibitory Concentration A. baumannii ATCC 19606 [6] [µg/mL] | IC50 (E. coli DNA gyrase) [nM] | IC50 (E. coli topoisomerase IV) [nM]
0.5 (≈ 1.01 µM) | 0.25 (≈ 0.503 µM) | 0.125 (≈ 0.251 µM) | 2 (≈ 4.02 µM) | 0.25 (≈ 0.503 µM) | 1 (≈ 2.01 µM) | Cn1c(=O)ccc2ccc(F)c(C[C@@H](O)CNC[C@H]3CN(c4ccc5c(n4)NC(=O)CO5)C(=O)O3)c21 (single isomer, unassigned) [Example 19] |  |  |  |  |  |  |  | 
0.25 (≈ 0.533 µM) | 0.125 (≈ 0.266 µM) | 0.25 (≈ 0.533 µM) | 2 (≈ 4.26 µM) | 0.125 (≈ 0.266 µM) | 1 (≈ 2.13 µM) | Cn1c(=O)cnc2ccc(F)c(CCNC[C@H]3CN(c4ncc5c(n4)NC(=O)CO5)C(=O)O3)c21 [Example 17, (S)-2-(5-(((2-(6-fluoro-4-methyl-3-oxo-3,4-dihydroquinoxalin-5-yl)ethyl)amino)methyl)-2-oxooxazolidin-3-yl)-6H-pyrimido[5,4-b][1,4]oxazin-7(8H)-one] |  |  |  |  |  |  |  | 
0.25 (≈ 0.488 µM) | 0.06 (≈ 0.117 µM) | 0.125 (≈ 0.244 µM) | 1 (≈ 1.95 µM) | 0.015 (≈ 0.0293 µM) | 0.125 (≈ 0.244 µM) | COCCn1c(=O)ccc2ccc(F)c(CCNC[C@H]3CN(c4cnc5c(n4)NC(=O)CO5)C(=O)O3)c21 [Example 21, (S)-6-(5-(((2-(7-fluoro-1-(2-methoxyethyl)-2-oxo-1,2-dihydroquinolin-8-yl)ethyl)amino)methyl)-2-oxooxazolidin-3-yl)-2H-pyrazino[2,3-b][1,4]oxazin-3(4H)-one] |  |  |  |  |  |  |  | 
0.03 (≈ 0.0622 µM) | 0.03 (≈ 0.0622 µM) | 0.03 (≈ 0.0622 µM) | 0.5 (≈ 1.04 µM) | ≤ 0.015 | 0.03 (≈ 0.0622 µM) | CCn1c(=O)ccc2ccc(F)c(CCNC[C@H]3CN(c4cnc5c(n4)NC(=O)CO5)C(=O)O3)c21 [Example 26, (S)-6-(5-(((2-(1-ethyl-7-fluoro-2-oxo-1,2-dihydroquinolin-8-yl)ethyl)amino)methyl)-2-oxooxazolidin-3-yl)-2H-pyrazino[2,3-b][1,4]oxazin-3(4H)-one] |  |  |  |  |  |  |  | 
0.06 (≈ 0.121 µM) | 0.03 (≈ 0.0604 µM) | 0.125 (≈ 0.252 µM) | 0.5 (≈ 1.01 µM) | 0.015 (≈ 0.0302 µM) | 0.06 (≈ 0.121 µM) | CCn1c(=O)ccc2ccc(F)c(CCNCC[C@H]3CN(c4cnc5c(n4)NC(=O)CO5)C(=O)O3)c21 [Example 27, (S)-6-(5-(2-((2-(1-ethyl-7-fluoro-2-oxo-1,2-dihydroquinolin-8-yl)ethyl)amino)ethyl)-2-oxooxazolidin-3-yl)-2H-pyrazino[2,3-b][1,4]oxazin-3(4H)-one] |  |  |  |  |  |  |  | 
0.06 (≈ 0.124 µM) | 0.06 (≈ 0.124 µM) | 0.06 (≈ 0.124 µM) | 0.5 (≈ 1.04 µM) | ≤ 0.015 | 0.125 (≈ 0.259 µM) | Cc1cc(=O)n(C)c2c(CCNC[C@H]3CN(c4cnc5c(n4)NC(=O)CO5)C(=O)O3)c(F)ccc12 [Example 28, (S)-6-(5-(((2-(7-fluoro-1,4-dimethyl-2-oxo-1,2-dihydroquinolin-8-yl)ethyl)amino)methyl)-2-oxooxazolidin-3-yl)-2H-pyrazino[2,3-b][1,4]oxazin-3(4H)-one] |  |  |  |  |  |  |  | 
0.125 (≈ 0.266 µM) | 0.125 (≈ 0.266 µM) | 0.125 (≈ 0.266 µM) | 0.5 (≈ 1.07 µM) | 0.03 (≈ 0.0639 µM) | 0.5 (≈ 1.07 µM) | Cn1c(=O)ccc2ncc(F)c(CCNC[C@H]3CN(c4cnc5c(n4)NC(=O)CO5)C(=O)O3)c21 [Example 29, (S)-6-(5-(((2-(3-fluoro-5-methyl-6-oxo-5,6-dihydro-1,5-naphthyridin-4-yl)ethyl)amino)methyl)-2-oxooxazolidin-3-yl)-2H-pyrazino[2,3-b][1,4]oxazin-3(4H)-one] |  |  |  |  |  |  |  | 

More lines, now with the values behind:

Compound | MIC [1] [µg/mL] | MIC [2] [µg/mL] | MIC [3] [µg/mL] | MIC [4] [µg/mL] | MIC [5] [µg/mL] | MIC [6] [µg/mL] | Minimum Inhibitory Concentration E. faecalis ATCC 29212 [1] [µg/mL] | Minimum Inhibitory Concentration E. coli ATCC 25922 [2] [µg/mL] | Minimum Inhibitory Concentration K. pneumoniae ATCC 13883 [3] [µg/mL] | Minimum Inhibitory Concentration P. aeruginosa ATCC 27853 [4] [µg/mL] | Minimum Inhibitory Concentration S. aureus ATCC 29213 [5] [µg/mL] | Minimum Inhibitory Concentration A. baumannii ATCC 19606 [6] [µg/mL] | IC50 (E. coli DNA gyrase) [nM] | IC50 (E. coli topoisomerase IV) [nM]
Cn1c(=O)ccc2ncc(F)c(CCCNCC3CN(c4ccc5c(n4)NC(=O)CO5)C(=O)O3)c21 (racemic) [Example 1, 6-(5-(((3-(3-fluoro-5-methyl-6-oxo-5,6-dihydro-1,5-naphthyridin-4-yl)propyl)amino)methyl)-2-oxooxazolidin-3-yl)-2H-pyrido[3,2-b][1,4]oxazin-3(4H)-one] | < 4 | < 0.5 | < 1 | < 16 | < 4 | < 0.5 |  |  |  |  |  |  |  | 
Cn1c(=O)ccc2ncc(F)c(CCCNCC3CN(c4ccc5c(n4)NC(=O)CO5)C(=O)O3)c21 (stereo not drawn) [Example 1b, Chiral 6-(5-(((3-(3-fluoro-5-methyl-6-oxo-5,6-dihydro-1,5-naphthyridin-4-yl)propyl)amino)methyl)-2-oxooxazolidin-3-yl)-2H-pyrido[3,2-b][1,4]oxazin-3(4H)-one] |  |  |  |  |  |  | <4 | <0.5 | <1 | <16 | <4 | <0.5 |  | 
CN1C(=O)CCc2ccc(F)c(CCNC[C@H]3CN(c4ccc5c(n4)NC(=O)CO5)C(=O)O3)c21 [Example 2, (S)-6-(5-(((2-(7-fluoro-1-methyl-2-oxo-1,2,3,4-tetrahydroquinolin-8-yl)ethyl)amino)methyl)-2-oxooxazolidin-3-yl)-2H-pyrido[3,2-b][1,4]oxazin-3(4H)-one] | 1 (≈ 2.13 µM) | 0.125 (≈ 0.266 µM) | 0.25 (≈ 0.533 µM) | 4 (≈ 8.52 µM) | 0.125 (≈ 0.266 µM) | 0.125 (≈ 0.266 µM) |  |  |  |  |  |  |  | 
Cn1c(=O)cnc2ccc(F)c(CCNC[C@H]3CN(c4ccc5c(n4)NC(=O)CO5)C(=O)O3)c21 [Example 4, (S)-6-(5-(((2-(6-fluoro-4-methyl-3-oxo-3,4-dihydroquinoxalin-5-yl)ethyl)amino)methyl)-2-oxooxazolidin-3-yl)-2H-pyrido[3,2-b][1,4]oxazin-3(4H)-one] | 0.06 (≈ 0.128 µM) | 0.03 (≈ 0.064 µM) | 0.03 (≈ 0.064 µM) | 0.25 (≈ 0.534 µM) | ≤ 0.015 | ≤ 0.015 |  |  |  |  |  |  | 7 | 93
Cc1nc2ccc(F)c(CCNC[C@H]3CN(c4ccc5c(n4)NC(=O)CO5)C(=O)O3)c2n(C)c1=O [Example 6, (S)-6-(5-(((2-(6-fluoro-2,4-dimethyl-3-oxo-3,4-dihydroquinoxalin-5-yl)ethyl)amino)methyl)-2-oxooxazolidin-3-yl)-2H-pyrido[3,2-b][1,4]oxazin-3(4H)-one] | 0.125 (≈ 0.259 µM) | 0.06 (≈ 0.124 µM) | 0.125 (≈ 0.259 µM) | 1 (≈ 2.07 µM) | 0.015 (≈ 0.0311 µM) | 0.015 (≈ 0.0311 µM) |  |  |  |  |  |  | 3.4 | 30
Cc1nc2ccc(F)c(CCNC[C@@H]3CN(c4ccc5c(n4)NC(=O)CO5)C(=O)O3)c2n(C)c1=O [Example 7, (R)-6-(5-(((2-(6-fluoro-2,4-dimethyl-3-oxo-3,4-dihydroquinoxalin-5-yl)ethyl)amino)methyl)-2-oxooxazolidin-3-yl)-2H-pyrido[3,2-b][1,4]oxazin-3(4H)-one] | 0.25 (≈ 0.518 µM) | 0.125 (≈ 0.259 µM) | 0.25 (≈ 0.518 µM) | 2 (≈ 4.15 µM) | 0.06 (≈ 0.124 µM) | 0.06 (≈ 0.124 µM) |  |  |  |  |  |  |  | 
CS(=O)(=O)CCn1c(=O)ccc2ccc(F)c(CCNC[C@H]3CN(c4ccc5c(n4)NC(=O)CO5)C(=O)O3)c21 [Example 11, (S)-6-(5-(((2-(7-fluoro-1-(2-(methylsulfonyl)ethyl)-2-oxo-1,2-dihydroquinolin-8-yl)ethyl)amino)methyl)-2-oxooxazolidin-3-yl)-2H-pyrido[3,2-b][1,4]oxazin-3(4H)-one] | 0.5 (≈ 0.894 µM) | 0.25 (≈ 0.447 µM) | 0.25 (≈ 0.447 µM) | 2 (≈ 3.57 µM) | 0.03 (≈ 0.0536 µM) | 0.5 (≈ 0.894 µM) |  |  |  |  |  |  |  | 
Cn1c(=O)cc(CO)c2ccc(F)c(CCNC[C@H]3CN(c4ccc5c(n4)NC(=O)CO5)C(=O)O3)c21 [Example 12, (S)-6-(5-(((2-(7-fluoro-4-(hydroxymethyl)-1-methyl-2-oxo-1,2-dihydroquinolin-8-yl)ethyl)amino)methyl)-2-oxooxazolidin-3-yl)-2H-pyrido[3,2-b][1,4]oxazin-3(4H)-one] | 0.5 (≈ 1.01 µM) | 0.25 (≈ 0.503 µM) | 0.5 (≈ 1.01 µM) | 1 (≈ 2.01 µM) | 0.25 (≈ 0.503 µM) | 1 (≈ 2.01 µM) |  |  |  |  |  |  | < 100 | 176
Cn1c(=O)cnc2ccc(F)c(CCNC[C@H]3CN(c4cnc5c(n4)NC(=O)CO5)C(=O)O3)c21 [Example 30, (S)-6-(5-(((2-(6-fluoro-4-methyl-3-oxo-3,4-dihydroquinoxalin-5-yl)ethyl)amino)methyl)-2-oxooxazolidin-3-yl)-2H-pyrazino[2,3-b][1,4]oxazin-3(4H)-one] | 0.125 (≈ 0.266 µM) | 0.06 (≈ 0.128 µM) | 0.06 (≈ 0.128 µM) | 0.25 (≈ 0.533 µM) | 0.03 (≈ 0.0639 µM) | 0.06 (≈ 0.128 µM) |  |  |  |  |  |  |  | 

Source: patent US10912780B2, “Heterocyclic compounds useful as anti-bacterial agents and method for production thereof” (Bugworks Research, Inc., priority 2017, dated 2021)
